Values after ≈ are worked out from the molar mass of the structure shown.
Columns and labels:
Assay in all cases: MIC, broth microdilution in Meuller-Hinton broth (NCCLS)
568 E. faecium (GSE) = format: cell-based; conditions: glycopeptide-sensitive clinical isolate
Method: (§1) Antibacterial activity in vitro was investigated by broth microdilution method in Meuller-Hinton broth as recommended by NCCLS. All strains tested were clinical isolates either sensitive or resistant to natural glycopeptides. Results are reported in the tables as MIC (minimal inhibitory concentration) in μg/ml.
(§2) The glycopeptides were tested against a variety of strains, indicated below, including Staphylococus epidermidis, Staphylococus haemolyticus, glycopeptides-intermediate Staphylococus aureus (GISA), glocopeptide-sensitive Enterococcus faecalis (GSE), and glocopeptide-resistant Enterococcus faecalis (GRE). Results are shown in the table as minimum inhibitory concentration (MIC) in units of μg/ml: […]

569 E. faecium (GRE) = format: cell-based; conditions: glycopeptide-resistant clinical isolate
Method: as §1, §2

560 E. faecalis (GRE) = format: cell-based, Enterococcus faecalis; conditions: glycopeptide-resistant clinical isolate
Method: as §1, §2

559 E. faecalis (GSE) = format: cell-based, Enterococcus faecalis; conditions: glycopeptide-sensitive clinical isolate
Method: as §1, §2

533 S. epidermidis = format: cell-based, Staphylococus epidermidis; conditions: clinical isolate
Method: as §1, §2

602 S. haemolyticus = format: cell-based, Staphylococus haemolyticus; conditions: clinical isolate
Method: as §1, §2

3798 S. aureus (GISA) = format: cell-based, Staphylococus aureus; conditions: glycopeptides-intermediate clinical isolate
Method: as §1, §2

3797 S. aureus (GISA) = format: cell-based, Staphylococus aureus; conditions: glycopeptides-intermediate clinical isolate
Method: as §1, §2

Question: Which results are given for CCCCCCCCCCN(CCCCCCCCCC)CC(=O)NC1(C)CC(OC2C(Oc3c4cc5cc3Oc3ccc(cc3Cl)C(O)C(NC(=O)C(CC(C)C)NC)C(=O)NC(CC(N)=O)C(=O)NC5C(=O)NC3C(=O)NC(C(=O)NC(C(=O)O)c5cc(O)cc(O)c5-c5cc3ccc5O)C(OC3CC(C)(N)C(O)C(C)O3)c3ccc(cc3)O4)OC(CO)C(O)C2O)OC(C)C1O (stereo not shown) [Compound 194]?
Answer: MIC 568 E. faecium (GSE) (568 E. faecium (GSE)): 2 µg/mL (≈ 1.06 µM); MIC 569 E. faecium (GRE) (569 E. faecium (GRE)): 8 µg/mL (≈ 4.22 µM); MIC 560 E. faecalis (GRE) (560 E. faecalis (GRE)): 16 µg/mL (≈ 8.44 µM); MIC 559 E. faecalis (GSE) (559 E. faecalis (GSE)): 4 µg/mL (≈ 2.11 µM); MIC 533 S. epidermidis (533 S. epidermidis): 2 µg/mL (≈ 1.06 µM); MIC 602 S. haemolyticus (602 S. haemolyticus): 2 µg/mL (≈ 1.06 µM); MIC 3798 S. aureus (GISA) (3798 S. aureus (GISA)): 8 µg/mL (≈ 4.22 µM); MIC 3797 S. aureus (GISA) (3797 S. aureus (GISA)): 8 µg/mL (≈ 4.22 µM)

Question: Which results are given for CNC(CC(C)C)C(=O)NC1C(=O)NC(CC(N)=O)C(=O)NC2C(=O)NC3C(=O)NC(C(=O)NC(C(=O)O)c4cc(O)cc(O)c4-c4cc3ccc4O)C(OC3CC(C)(N)C(O)C(C)O3)c3ccc(cc3)Oc3cc2cc(c3OC2OC(CO)C(O)C(O)C2OC2CC(C)(NC(=O)C(N)CCCCN)C(O)C(C)O2)Oc2ccc(cc2Cl)C1O (stereo not shown) [Compound 203]?
Answer: MIC 568 E. faecium (GSE) (568 E. faecium (GSE)): 0.25 µg/mL (≈ 0.148 µM); MIC 569 E. faecium (GRE) (569 E. faecium (GRE)): 16 µg/mL (≈ 9.49 µM); MIC 560 E. faecalis (GRE) (560 E. faecalis (GRE)): >64 µg/mL; MIC 559 E. faecalis (GSE) (559 E. faecalis (GSE)): 0.25 µg/mL (≈ 0.148 µM); MIC 533 S. epidermidis (533 S. epidermidis): 0.13 µg/mL (≈ 0.0771 µM); MIC 602 S. haemolyticus (602 S. haemolyticus): 0.13 µg/mL (≈ 0.0771 µM); MIC 3798 S. aureus (GISA) (3798 S. aureus (GISA)): 8 µg/mL (≈ 4.74 µM); MIC 3797 S. aureus (GISA) (3797 S. aureus (GISA)): 4 µg/mL (≈ 2.37 µM)

Question: CNC(CC(C)C)C(=O)NC1C(=O)NC(CC(N)=O)C(=O)NC2C(=O)NC3C(=O)NC(C(=O)NC(C(=O)O)c4cc(O)cc(O)c4-c4cc3ccc4O)C(O)c3ccc(c(Cl)c3)Oc3cc2cc(c3OC2OC(CO)C(O)C(O)C2OC2CC(C)(NC(=O)CNCc3ccc(-c4ccc(Cl)cc4)cc3)C(O)C(C)O2)Oc2ccc(cc2Cl)C1O (stereo not shown) [Compound 210] was tested. Which “MIC 568 E. faecium (GSE)” value (568 E. faecium (GSE)) did it give?
Answer: 0.25 µg/mL (≈ 0.146 µM)

Question: What about the “MIC 569 E. faecium (GRE)” value (569 E. faecium (GRE)) of the same compound?
Answer: 16 µg/mL (≈ 9.37 µM)

Question: What about the “MIC 560 E. faecalis (GRE)” value (560 E. faecalis (GRE)) of the same compound?
Answer: 16 µg/mL (≈ 9.37 µM)

Question: And the “MIC 559 E. faecalis (GSE)” value (559 E. faecalis (GSE))?
Answer: 0.5 µg/mL (≈ 0.293 µM)

Question: And the “MIC 533 S. epidermidis” value (533 S. epidermidis)?
Answer: 0.13 µg/mL (≈ 0.0762 µM)

Question: And the “MIC 602 S. haemolyticus” value (602 S. haemolyticus)?
Answer: 0.25 µg/mL (≈ 0.146 µM)

Question: And the “MIC 3798 S. aureus (GISA)” value (3798 S. aureus (GISA))?
Answer: 1 µg/mL (≈ 0.586 µM)

Question: What about the “MIC 3797 S. aureus (GISA)” value (3797 S. aureus (GISA)) of the same compound?
Answer: 1 µg/mL (≈ 0.586 µM)

Question: How did the “MIC 568 E. faecium (GSE)” value (568 E. faecium (GSE)) turn out when CNC(CC(C)C)C(=O)NC1C(=O)NC(CC(N)=O)C(=O)NC2C(=O)NC3C(=O)NC(C(=O)NC(C(=O)O)c4cc(O)cc(O)c4-c4cc3ccc4O)C(OC3CC(C)(N)C(O)C(C)O3)c3ccc(cc3)Oc3cc2cc(c3OC2OC(CO)C(O)C(O)C2OC2CC(C)(NC(=O)CNC(=O)OCC3c4ccccc4-c4ccccc43)C(O)C(C)O2)Oc2ccc(cc2Cl)C1O (stereo not shown) [Compound 221] was run?
Answer: 0.5 µg/mL (≈ 0.272 µM)

Question: And the “MIC 569 E. faecium (GRE)” value (569 E. faecium (GRE))?
Answer: 64 µg/mL (≈ 34.8 µM)

Question: What about the “MIC 560 E. faecalis (GRE)” value (560 E. faecalis (GRE)) of the same compound?
Answer: >64 µg/mL

Question: And the “MIC 559 E. faecalis (GSE)” value (559 E. faecalis (GSE))?
Answer: 0.5 µg/mL (≈ 0.272 µM)

Question: How did the “MIC 568 E. faecium (GSE)” value (568 E. faecium (GSE)) turn out when CNC(CC(C)C)C(=O)NC1C(=O)NC(CC(N)=O)C(=O)NC2C(=O)NC3C(=O)NC(C(=O)NC(C(=O)O)c4cc(O)cc(O)c4-c4cc3ccc4O)C(OC3CC(C)(N)C(O)C(C)O3)c3ccc(cc3)Oc3cc2cc(c3OC2OC(CO)C(O)C(O)C2OC2CC(C)(NC(=O)CNC(=O)OC34CC5CC(CC(C5)C3)C4)C(O)C(C)O2)Oc2ccc(cc2Cl)C1O (stereo not shown) [Compound 222] was run?
Answer: 1 µg/mL (≈ 0.558 µM)

Question: And the “MIC 569 E. faecium (GRE)” value (569 E. faecium (GRE))?
Answer: >64 µg/mL

Question: And the “MIC 560 E. faecalis (GRE)” value (560 E. faecalis (GRE))?
Answer: >64 µg/mL

Question: And the “MIC 559 E. faecalis (GSE)” value (559 E. faecalis (GSE))?
Answer: 2 µg/mL (≈ 1.12 µM)

Question: Which “MIC 533 S. epidermidis” value (533 S. epidermidis) does the source give for CCCCCCCCOc1ccc(CNCC(=O)NC2(C)CC(OC3C(Oc4c5cc6cc4Oc4ccc(cc4Cl)C(O)C(NC(=O)C(CC(C)C)NC)C(=O)NC(CC(N)=O)C(=O)NC6C(=O)NC4C(=O)NC(C(=O)NC(C(=O)NC6C7CC8CC(C7)CC6C8)c6cc(O)cc(O)c6-c6cc4ccc6O)C(OC4CC(C)(N)C(O)C(C)O4)c4ccc(cc4)O5)OC(CO)C(O)C3O)OC(C)C2O)cc1 (stereo not shown) [Compound 265] here?
Answer: 32 µg/mL (≈ 16.3 µM)

Question: What about the “MIC 602 S. haemolyticus” value (602 S. haemolyticus) of the same compound?
Answer: 32 µg/mL (≈ 16.3 µM)

Question: And the “MIC 3798 S. aureus (GISA)” value (3798 S. aureus (GISA))?
Answer: >32 µg/mL

Question: What about the “MIC 3797 S. aureus (GISA)” value (3797 S. aureus (GISA)) of the same compound?
Answer: >32 µg/mL

Question: How did the “MIC 533 S. epidermidis” value (533 S. epidermidis) turn out when CCCCCCCCOc1ccc(CNCC(=O)NC2(C)CC(OC3C(Oc4c5cc6cc4Oc4ccc(cc4Cl)C(O)C(NC(=O)C(CC(C)C)NC)C(=O)NC(CC(N)=O)C(=O)NC6C(=O)NC4C(=O)NC(C(=O)NC(C(=O)NC(C)C67CC8CC(CC(C8)C6)C7)c6cc(O)cc(O)c6-c6cc4ccc6O)C(OC4CC(C)(N)C(O)C(C)O4)c4ccc(cc4)O5)OC(CO)C(O)C3O)OC(C)C2O)cc1 (stereo not shown) [Compound 266] was run?
Answer: 16 µg/mL (≈ 8.02 µM)

Question: And the “MIC 602 S. haemolyticus” value (602 S. haemolyticus)?
Answer: 32 µg/mL (≈ 16 µM)

Question: And the “MIC 3798 S. aureus (GISA)” value (3798 S. aureus (GISA))?
Answer: >32 µg/mL

Question: What about the “MIC 3797 S. aureus (GISA)” value (3797 S. aureus (GISA)) of the same compound?
Answer: >32 µg/mL
